Data as given in patent US20150133297A1, “NEW ANTIFUNGAL COMPOSITIONS” (DSM IP ASSETS B.V., priority 2012, published 2015).
Several values for one entry are separate records, joined by “and”; a condition that tells them apart may be missing. Equal values may be shown once.

Assays:
Botrytis cinerea = experiment: Treatment of strawberries (Example 5): wounded, inoculated, dipped in antifungal composition; type: in vivo; conditions: 500 ppm natamycin, 600 ppm fenpropidin or both; for Observed antifungal activity O (%): strawberries, 20° C.
Procedure: Twelve fresh, organic strawberries were used per treatment. Each strawberry was wounded with a 0.5 mm long cut and each wound was inoculated with 10 μl of a Botrytis cinerea suspension containing 1×10^5 of spores/ml. […] A composition without natamycin or fenpropidin was used as control. […] The treated strawberries were incubated in a closed box in the dark at 20° C. for 9 days. During incubation, mould growth on the strawberries was assessed in a twofold manner: […] The expected antifungal activity (E in %) of the combined antifungal composition comprising both active ingredients was calculated according to the Colby equation (Colby, 1967): […] wherein X and Y are the observed antifungal activities (in %) of the individual active ingredients X and Y, respectively.

Penicillium italicum = experiment: Treatment of oranges (Examples 6-9): wounded, inoculated, wound treated with antifungal composition; type: in vivo; conditions: for Observed antifungal activity O (%): oranges, 20° C.
Procedure: During incubation, mould growth on the strawberries was assessed in a twofold manner: (i) the number of moulded strawberries per total of 12 strawberries was counted; and (ii) the antifungal activity (in %) of the individual and combined active ingredients was determined by calculating the reduction in mould growth observed on the strawberries treated with the antifungal composition in comparison to the mould growth on the strawberries treated with the control composition. The expected antifungal activity (E in %) of the combined antifungal composition comprising both active ingredients was calculated according to the Colby equation (Colby, 1967): […]
Eight fresh, organic oranges were used per treatment. Each orange was soaked in a 180 ppm hypochlorite solution for 10 minutes, then rinsed thoroughly with fresh tap water and dried. The peel of each disinfected orange was wounded once using a cork borer according to the method described by de Lapeyre de Bellaire and Dubois (1987). Subsequently, each wound was inoculated with 10 μl of a Penicillium italicum suspension containing 5×10^5 of spores/ml. After incubation for 3 hours at 20° C., each wound and the orange peel area of 1 cm around the wound was treated with in total 150 μl of a freshly prepared aqueous antifungal composition comprising either 500 ppm natamycin (DSM Food Specialties, Delft, The Netherlands), 500 ppm fenpropidin or both. Each antifungal composition also comprised 3.2% (w/w) beeswax, 0.8% (w/w) glycerol, 0.7% (w/w) polyoxyethylene sorbitan monostearate (Tween 60), 0.1% (w/w) polyoxyethylene sorbitan monooleate (Tween 80), 0.05% (w/w) methylhydroxyethyl-cellulose (MHEC), 0.03% (w/w) anti-foaming agent, 0.02% (w/w) xanthan gum, 0.02% (w/w) citric acid, 0.01% (w/w) lactic acid and 0.01% potassium sorbate. A composition without natamycin or fenpropidin was used as control. […] The treated oranges were incubated in a closed box in the dark at 20° C. and assessed on mould growth during a 28-day incubation period. The antifungal activity (in %) of the individual and combined active ingredients was determined by calculating the reduction in mould growth observed on the oranges treated with the antifungal composition in comparison to the mould growth on the oranges treated with the control composition according to the Colby method (Colby, 1967) as described in Example 5.
(§1) The experiment was conducted as described in Example 6, except for the fact that each wounded and inoculated orange was treated with 150 μl of a freshly prepared aqueous antifungal composition comprising either 250 ppm natamycin (DSM Food Specialties, Delft, The Netherlands), 250 ppm fenpropidin or both. During the 26-day incubation period, the treated oranges were assessed on mould growth according to the two methods described in Example 5.
as §1, with “either 500” for “either 250”, “Netherlands), 400” for “Netherlands), 250”, “ppm spiroxamine” for “ppm fenpropidin”
as §1, with “Netherlands), 200” for “Netherlands), 250”, “ppm spiroxamine” for “ppm fenpropidin”

CC(Cc1ccc(C(C)(C)C)cc1)CN1CCCCC1 (stereo not drawn) [Fenpropidin, fenpropidin]
Number of moulded strawberries/total number of 12 strawberries (Botrytis cinerea; Day 5, 20° C.): 12 and 12/12
Number of moulded strawberries/total number of 12 strawberries (Botrytis cinerea; Day 6, 20° C.): 12 and 12/12
Observed antifungal activity O (%) (Botrytis cinerea; day 4): 0%
Observed antifungal activity O (%) (Botrytis cinerea; day 5): 0%
Observed antifungal activity O (%) (Botrytis cinerea; day 6): 0%
Observed antifungal activity O (%) (Botrytis cinerea; day 7): 0%
Observed antifungal activity O (%) (Botrytis cinerea; day 8): 0%
Observed antifungal activity O (%) (Botrytis cinerea; day 9): 0%
Number of moulded oranges/total number of 8 oranges (Penicillium italicum; Day 18, 20° C., 250 ppm natamycin, 250 ppm fenpropidin or both): 6/8
Number of moulded oranges/total number of 8 oranges (Penicillium italicum; Day 19, 20° C., 250 ppm natamycin, 250 ppm fenpropidin or both): 6/8
Number of moulded oranges/total number of 8 oranges (Penicillium italicum; Day 20, 20° C., 250 ppm natamycin, 250 ppm fenpropidin or both): 7/8
Number of moulded oranges/total number of 8 oranges (Penicillium italicum; Day 21-22, 20° C., 250 ppm natamycin, 250 ppm fenpropidin or both): 7 and 7/8
Number of moulded oranges/total number of 8 oranges (Penicillium italicum; Day 23-26, 20° C., 250 ppm natamycin, 250 ppm fenpropidin or both): 7 and 7/8
Observed antifungal activity O (%) (Penicillium italicum; day 18, 250 ppm natamycin, 250 ppm fenpropidin or both): 59%
Observed antifungal activity O (%) (Penicillium italicum; day 19, 250 ppm natamycin, 250 ppm fenpropidin or both): 50%
Observed antifungal activity O (%) (Penicillium italicum; day 20, 250 ppm natamycin, 250 ppm fenpropidin or both): 43%
Observed antifungal activity O (%) (Penicillium italicum; day 21, 250 ppm natamycin, 250 ppm fenpropidin or both): 38%
Observed antifungal activity O (%) (Penicillium italicum; day 22, 250 ppm natamycin, 250 ppm fenpropidin or both): 30%
Observed antifungal activity O (%) (Penicillium italicum; day 22, 500 ppm natamycin, 500 ppm fenpropidin or both): 94%
Observed antifungal activity O (%) (Penicillium italicum; day 23, 250 ppm natamycin, 250 ppm fenpropidin or both): 16%
Observed antifungal activity O (%) (Penicillium italicum; day 23, 500 ppm natamycin, 500 ppm fenpropidin or both): 89%
Observed antifungal activity O (%) (Penicillium italicum; day 25, 250 ppm natamycin, 250 ppm fenpropidin or both): 4%
Observed antifungal activity O (%) (Penicillium italicum; day 25, 500 ppm natamycin, 500 ppm fenpropidin or both): 84%
Observed antifungal activity O (%) (Penicillium italicum; day 26, 250 ppm natamycin, 250 ppm fenpropidin or both): 0%
Observed antifungal activity O (%) (Penicillium italicum; day 26, 500 ppm natamycin, 500 ppm fenpropidin or both): 81%
Observed antifungal activity O (%) (Penicillium italicum; day 27, 500 ppm natamycin, 500 ppm fenpropidin or both): 80%
Observed antifungal activity O (%) (Penicillium italicum; day 28, 500 ppm natamycin, 500 ppm fenpropidin or both): 75%
